One series has as its system noradrenaline. The conditions noted are these: cited from earlier work.
The next series has as its system dopamine. As to conditions: cited from earlier work.
The nature of another series: physchem. As to conditions: water, aqueous solubility.
A further series has as its system serotonin. The conditions noted are these: cited from earlier work.

Converted amounts (≈) assume the structure as drawn.

Broadly, the solubility is the concentration that dissolves in the medium under given conditions. Low values mean a poorly soluble substance, high ones a readily soluble substance. One may read the bioavailability as dose-corrected exposure relative to a reference, in per cent. Higher therefore signals much systemic uptake. What is called half-life is the time in which the quantity being followed falls by half. With `CCN(CC)C(=O)C1(c2ccccc2)CC1CN` (stereo not shown) [Milnacipran], the “inhibition of the capture of noradrenaline” value in the series with noradrenaline is “mixed inhibition”. Also, the effect on dopamine result in the series on dopamine is “no effect”. Moreover, the solubility in the series “physchem” was 800 mg/mL (≈ 3250 mM). Moreover, in the series on serotonin, the “inhibition of the capture of serotonin” value is “mixed inhibition”. In the series “in vivo”, this compound registered a bioavailability greater than 85% and a half-life of 420 to 540 min.
Regarding `CCN(CC)C(=O)[C@@]1(c2ccccc2)C[C@H]1CN` [dextrorotatory form], the “activity of isomeric forms” value in “activity of the isomers” is listed as “more active than the levorotatory form”.

The record behind these values is US6699506B1, “Pharmaceutical composition with extended release of Milnacipran” (Pierre Fabre Medicament, priority 1996, dated 2004).
